Assay results from patent publication US5876946A, “High-throughput assay” (Pharmacopeia, Inc., priority 1997, dated 1999).

Tests used:
IL-8 receptor = experiment: conventional [^125 I]IL-8 ligand displacement assay; format: binding
[1] = target: T1, neurokinin-2 receptor (NK2R/CHO cells) (Homo sapiens, UniProt P21452); experiment: Displacement of Cy5-NKA bound to NK2R/CHO cells by SR48,968; format: binding
T1 construct: expressed in transfected cells; host or cells: CHO cells (NK2R/CHO)
T1 sequence (P21452 1-398): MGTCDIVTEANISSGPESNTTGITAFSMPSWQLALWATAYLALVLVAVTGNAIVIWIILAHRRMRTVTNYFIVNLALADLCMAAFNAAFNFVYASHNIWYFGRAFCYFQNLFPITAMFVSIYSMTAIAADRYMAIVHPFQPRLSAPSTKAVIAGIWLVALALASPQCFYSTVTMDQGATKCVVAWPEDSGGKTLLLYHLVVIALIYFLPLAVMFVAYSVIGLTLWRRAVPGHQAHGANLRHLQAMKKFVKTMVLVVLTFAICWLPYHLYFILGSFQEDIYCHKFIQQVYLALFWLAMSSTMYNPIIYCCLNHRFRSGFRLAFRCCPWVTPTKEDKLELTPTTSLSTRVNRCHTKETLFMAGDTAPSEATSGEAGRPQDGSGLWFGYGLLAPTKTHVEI
Method: (a) Cells expressing neurokinin-2 receptor (NK2R/CHO) were obtained.
A culture of NK2R/CHO cells, near confluence, was washed with 12 mL DPBS(Mg^+2 & Ca^+2 free), trypsinized by adding trypsin (2 mL/T-25 flask), incubating at 37° C. for about 5 min, then quenching with 10 mL media. Cells were then counted, and diluted to the desired final concentration of cells (5,000 cells/25 μL). […] The plate was covered and wrapped in aluminum foil to protect from light and left to shake for 1 hr at room temperature. For each sample, 25 μL was removed, placed in an IMAGN 2000™ capillary, and read using IMAGN™ software (Biometric Imaging, Inc.) The sample was allowed to settle until the cells rested on the bottom of the well. The time require for settling was typically 10 minutes.
SR-48,968 is a known inhibitor of the binding of NKA neurokinin 2 receptor.
"Max" and "min" refer to the maximum and minimum fluorescence for the relevant value.
% Control=((Value-Min)/(Max-Min))×100

| Molecule | Ki (IL-8 receptor) [nM] | IC50 [1] [nM] | estimated Ki ([1]; displacement of Cy5-NKA) [nM] | Hill coefficient ([1]; displacement of Cy5-NKA by SR48.968) |
| --- | --- | --- | --- | --- |
| hIL(S72C)-Cy5: Human interleukin-8, Ser72→Cys mutant (hIL-8(S72C)), labelled with monofunctional Cy5-iodoacetamide | 2 | – | – | – |
| CC(=O)NC1(c2ccccc2)CCN(CCC(CN(C)C(=O)c2ccccc2)c2ccc(Cl)c(Cl)c2)CC1 (stereo not shown) [SR48.968] | – | 0.575 | ~0.29 | 0.996 |
